TGI data for 13 molecules are collected here from PubChem BioAssay (NCI).

Among the test systems are HOP-62 NSCLC; NCI/ADR-RES ovarian; UACC-257 melanoma; SK-MEL-2 melanoma; UACC-62 melanoma; MOLT-4 leukemia; SR leukemia; HOP-92 NSCLC; SK-OV-3 ovarian; SK-MEL-5 melanoma; SN12C renal; OVCAR-8 ovarian.
Test in all cases: growth of human tumour cells (NCI), 48 h

Molecules are shown by their SMILES.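 Method: 48-hour compound exposure of cells in 96-well plates, five concentrations, linear interpolation of endpoints. TGI is the concentration that stops growth completely.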

Regarding `Cc1cccc(/C=N/NC(=S)NC2CCCCC2)n1`, the TGI is > 90.9 µM with HOP-62 NSCLC; > 67.1 µM in the test with NCI/ADR-RES ovarian; > 84.5 µM in the test with UACC-257 melanoma; > 100 µM with SK-MEL-2 melanoma; 59.2 µM in the test with UACC-62 melanoma; 13.9 µM in the test with MOLT-4 leukemia. Moreover, the TGI in the test with SR leukemia is > 78.3 µM; in the test with HOP-92 NSCLC it was 61.8 µM; in the test with SK-OV-3 ovarian, > 100 µM; in the test with SK-MEL-5 melanoma, > 100 µM; in the test on SN12C renal, > 100 µM; in the test with OVCAR-8 ovarian it was > 69 µM.
On to `CN(C)Cc1cc(N=Nc2c(Cl)cccc2Cl)ccc1O`, for which the TGI in the test on HOP-62 NSCLC, in the test with NCI/ADR-RES ovarian, in the test with UACC-257 melanoma, in the test on SK-MEL-2 melanoma, in the test on UACC-62 melanoma and in the test with MOLT-4 leukemia was > 100 µM throughout. Moreover, the TGI in the test with SR leukemia is > 100 µM; in the test on HOP-92 NSCLC it was > 100 µM; in the test with SK-OV-3 ovarian, > 100 µM; in the test on SK-MEL-5 melanoma, 52.1 µM; with SN12C renal it was > 100 µM; in the test with OVCAR-8 ovarian it was > 100 µM.
As to `COc1ccc(OC)c2sc(N3C(=O)/C(=C/c4ccc(N(C)C)cc4)N=C3c3ccccc3)nc12`, the TGI is > 100 µM with HOP-62 NSCLC; > 100 µM in the test on NCI/ADR-RES ovarian; > 100 µM in the test on UACC-257 melanoma; > 100 µM in the test on SK-MEL-2 melanoma; > 100 µM in the test on UACC-62 melanoma; 65.7 µM in the test with MOLT-4 leukemia. The TGI was 74.6 µM with SR leukemia; > 100 µM with HOP-92 NSCLC; > 100 µM in the test on SK-OV-3 ovarian; > 100 µM in the test with SK-MEL-5 melanoma; > 100 µM with SN12C renal; > 100 µM in the test with OVCAR-8 ovarian.
In the case of `O=C(c1c(F)c(F)c(F)c(F)c1F)n1c(=O)[nH]c2ccccc21`, the TGI with HOP-62 NSCLC came out at 31.6 µM; in the test with NCI/ADR-RES ovarian, 58.1 µM; in the test on UACC-257 melanoma, 19.7 µM; in the test with SK-MEL-2 melanoma it was 17.5 µM; in the test with UACC-62 melanoma, 25.5 µM; with MOLT-4 leukemia it was 18.7 µM. In addition, the TGI worked out at 8.8 µM with SR leukemia; 11.4 µM in the test on HOP-92 NSCLC; 29.7 µM with SK-OV-3 ovarian; 28.7 µM with SK-MEL-5 melanoma; 28.3 µM in the test on SN12C renal; 27 µM in the test with OVCAR-8 ovarian.
As to `CCOC(=O)c1nc2cc(F)c(F)cc2nc1NCc1cc(OC)c(OC)c(OC)c1`, the TGI in the test on HOP-62 NSCLC, in the test on NCI/ADR-RES ovarian, in the test with UACC-257 melanoma, with SK-MEL-2 melanoma, in the test on UACC-62 melanoma and with MOLT-4 leukemia was > 100 µM each time. In addition, the TGI with SR leukemia, in the test on HOP-92 NSCLC, in the test with SK-OV-3 ovarian, in the test on SK-MEL-5 melanoma, with SN12C renal and in the test with OVCAR-8 ovarian was > 100 µM throughout.
For the molecule `COc1ccc2c(c1)nc1n2C(c2c(F)cccc2F)SC1` (stereo unspecified), the TGI was > 100 µM with HOP-62 NSCLC; > 100 µM with NCI/ADR-RES ovarian; > 100 µM in the test on UACC-257 melanoma; 96.7 µM in the test on SK-MEL-2 melanoma; > 100 µM in the test with UACC-62 melanoma; > 100 µM with MOLT-4 leukemia. The TGI was > 100 µM in the test with SR leukemia; > 100 µM in the test with HOP-92 NSCLC; > 100 µM in the test on SK-OV-3 ovarian; 56.4 µM with SK-MEL-5 melanoma; > 100 µM with SN12C renal; > 100 µM in the test with OVCAR-8 ovarian.
For the molecule `NS(=O)(=O)c1ccc(NC(=S)/N=C/c2c(O)c3ccccc3[nH]c2=O)cc1`, the TGI in the test on HOP-62 NSCLC, with NCI/ADR-RES ovarian, in the test with UACC-257 melanoma, in the test with SK-MEL-2 melanoma, in the test with UACC-62 melanoma and in the test with MOLT-4 leukemia was > 100 µM each time. The TGI with SR leukemia, in the test with HOP-92 NSCLC, with SK-OV-3 ovarian, in the test with SK-MEL-5 melanoma, in the test with SN12C renal and with OVCAR-8 ovarian was > 100 µM each time.
In the case of `Cc1cccc2c1CC(C1OC(=O)c3c(C)cccc31)C2=O` (stereo unspecified), the TGI with HOP-62 NSCLC, in the test with NCI/ADR-RES ovarian, in the test with UACC-257 melanoma, in the test on SK-MEL-2 melanoma, in the test on UACC-62 melanoma and with MOLT-4 leukemia was > 100 µM each time. Besides, the TGI with SR leukemia, in the test on HOP-92 NSCLC, in the test on SK-OV-3 ovarian, in the test on SK-MEL-5 melanoma, in the test with SN12C renal and in the test on OVCAR-8 ovarian was > 100 µM throughout.
For `N#Cc1c(-c2cccc(Br)c2)cc(-c2ccc(Cl)cc2)nc1N`, the TGI in the test with HOP-62 NSCLC is 79.1 µM; in the test on NCI/ADR-RES ovarian, 55.6 µM; in the test with UACC-257 melanoma, 38.2 µM; in the test on SK-MEL-2 melanoma, 31.5 µM; with UACC-62 melanoma, 29.2 µM; in the test with MOLT-4 leukemia, 50.1 µM. Moreover, the TGI is 46.3 µM in the test on SR leukemia; 32.4 µM with HOP-92 NSCLC; 56.6 µM with SK-OV-3 ovarian; 30.7 µM in the test with SK-MEL-5 melanoma; 35.9 µM with SN12C renal; > 100 µM with OVCAR-8 ovarian.
For the molecule `CC(=O)O[C@H]1CC[C@@]2(C)C(=CC[C@H]3[C@@H]4C[C@H](N5CCN(C)CC5)[C@H](OC(C)=O)[C@@]4(C)CC[C@@H]32)C1`, the TGI in the test with HOP-62 NSCLC was 52.6 µM; in the test on NCI/ADR-RES ovarian it was 44.6 µM; in the test on UACC-257 melanoma it was 17.3 µM; with SK-MEL-2 melanoma, 33.3 µM; in the test with UACC-62 melanoma it was 26.4 µM; in the test with MOLT-4 leukemia, 16.8 µM. The TGI was 11.4 µM in the test with SR leukemia; 92.7 µM with HOP-92 NSCLC; > 65.8 µM with SK-OV-3 ovarian; 12.5 µM with SK-MEL-5 melanoma; 67.8 µM with SN12C renal; 30.5 µM in the test on OVCAR-8 ovarian.
Regarding `Cc1cc(Cl)ccc1NC(=O)/C(Cc1nc2ccc(C(=O)c3ccccc3)cc2[nH]c1=O)=N/NC(=O)c1ccncc1`, the TGI in the test with HOP-62 NSCLC, with NCI/ADR-RES ovarian, with UACC-257 melanoma, in the test on SK-MEL-2 melanoma, with UACC-62 melanoma and in the test on MOLT-4 leukemia was > 100 µM in each case. Besides, the TGI in the test with SR leukemia, in the test with HOP-92 NSCLC, in the test on SK-OV-3 ovarian, in the test on SK-MEL-5 melanoma, in the test with SN12C renal and with OVCAR-8 ovarian was > 100 µM throughout.
Turning to `N/C(=N\Nc1cccc(Cl)c1)c1cccnc1`, the TGI is > 100 µM in the test on HOP-62 NSCLC; > 100 µM in the test on NCI/ADR-RES ovarian; > 81.5 µM with UACC-257 melanoma; > 100 µM in the test with SK-MEL-2 melanoma; > 100 µM with UACC-62 melanoma; > 100 µM in the test with MOLT-4 leukemia. Moreover, the TGI with SR leukemia is 64.9 µM; with HOP-92 NSCLC, > 100 µM; in the test on SK-OV-3 ovarian, > 100 µM; in the test with SK-MEL-5 melanoma, > 88 µM; in the test with SN12C renal it was > 100 µM; in the test on OVCAR-8 ovarian it was > 100 µM.
On to `CCCCCCCCCCCCOCCCCCCCCC/C=C/c1ccc2c(c1)OCCOCCOCCOCCO2`, for which the TGI is 51.4 µM in the test on HOP-62 NSCLC; 34.8 µM in the test with NCI/ADR-RES ovarian; 73.2 µM in the test on UACC-257 melanoma; 30.2 µM in the test with SK-MEL-2 melanoma; 30.3 µM in the test on UACC-62 melanoma; > 100 µM with MOLT-4 leukemia. Moreover, the TGI in the test on SR leukemia was determined as 49.1 µM; with HOP-92 NSCLC, 26.5 µM; in the test on SK-OV-3 ovarian it was 34.4 µM; in the test on SK-MEL-5 melanoma, 29.7 µM; in the test on SN12C renal it was 50.8 µM; in the test on OVCAR-8 ovarian it was 25.5 µM.
